Experimental data published in patent US6482921B1, “Uridyl peptide antibiotic (UPA) derivatives, their synthesis and use” (Essential Therapeutics, Inc., priority 1999, dated 2002).
Converted amounts (≈) assume the structure as drawn.

Tests used:
Type in all cases: cell-based
[1] = system: Pseudomonas aeruginosa PAM 1020; assay: MIC broth microdilution, P. aeruginosa PAM 1020 (wild type); conditions: P. aeruginosa PAM 1020
[2] = system: Pseudomonas aeruginosa PAM 1154; assay: MIC broth microdilution, P. aeruginosa PAM 1154 (OprM::Hg); conditions: P. aeruginosa PAM 1154 OprM::Hg
[3] = system: Pseudomonas aeruginosa PAM 1135; assay: MIC broth microdilution, P. aeruginosa PAM 1135 (high level UPA resistance); conditions: P. aeruginosa PAM 1135 UPA1^r
[4] = system: Pseudomonas aeruginosa PAM 1323; assay: MIC broth microdilution, P. aeruginosa PAM 1323 (medium level UPA resistance)
Procedure: Compounds were tested against several panels of bacteria. In a first panel, Table 3, several strains of Pseudomonas aeruginosa, Escherichia coli and Staphylococcus aureus were employed as the target bacteria.
For the bacteria in Table 3, the assay was performed in Mueller-Hinton Broth (MHB) with a final bacterial inoculum of 5×10^5 CFU/ml and a final volume of 100 μl. Control drugs, including imipenem and pacidimycin 4, and the test compounds were prepared at a concentration which was twice the desired final concentration (256 μg/ml). Dilution of the controls and the test compounds was accomplished directly on the test plates by serial 2-fold dilution using a multi-channel pipette. Both a positive and a negative growth control was included in each plate.
The bacterial inocula were prepared as follows. Bacterial strains were grown overnight at 35° C. in MHB. […] The culture was then diluted 1:10 and allowed to grow for an additional one hour at 35° C. in a shaking incubator. The inocula were then prepared by diluting the early log phase (one hour) cultures 1:2000 with fresh MHB. A volume of 50 μl of the inocula was added to each well, resulting in an inoculum of approximately 5×10^5 CFU/ml. The exact inocula were determined by putting 10 μl of 10-fold serial dilution of the bacterial suspensions onto TSA. After overnight incubation at 35° C., colony-forming units were counted manually.
The microtiter plates were incubated for 20 hours at 35° C. and were then read using a microtiterplate reader (Molecular Devices) at 650 nm as well as being visually observed using a microtiterplate reading mirror.

Escherichia Coli MC 4100 = assay: MIC broth microdilution, E. coli MC 4100 (wild type); conditions: E. coli MC 4100
[5] = system: Escherichia Coli MC 4100 AcrAB; assay: MIC broth microdilution, E. coli MC 4100 AcrAB (ΔAcrAB); conditions: E. coli AcrAB
[6] = system: Escherichia Coli MC 4100 AcrAB UPA3r; assay: MIC broth microdilution, E. coli MC 4100 AcrAB UPA3r (ΔAcrAB, UPA resistant); conditions: E. coli AcrAB UPA3^r
[7] = system: Staphylococcus aureus ATCC 29213; assay: MIC broth microdilution, S. aureus ATCC 29213 (wild type); conditions: S. aureus ATCC 29213
[8] = system: Staphylococcus aureus 8325-4; assay: MIC broth microdilution, S. aureus 8325-4 (wild type); conditions: S. aureus 8325-4
[9] = system: Pasteurella multocida pm002; assay: MIC broth microdilution, P. multocida pm002 (wild type)

Row | Compound | MIC (μg/ml) Broth microdilution [1] [µg/mL] | MIC (μg/ml) Broth microdilution [2] [µg/mL] | MIC (μg/ml) Broth microdilution [3] [µg/mL] | MIC (μg/ml) Broth microdilution [4] [µg/mL] | MIC (μg/ml) Broth microdilution (Escherichia Coli MC 4100) [µg/mL] | MIC (μg/ml) Broth microdilution [5] [µg/mL] | MIC (μg/ml) Broth microdilution [6] [µg/mL] | MIC (μg/ml) Broth microdilution [7] [µg/mL] | MIC (μg/ml) Broth microdilution [8] [µg/mL] | MIC (μg/ml) Broth microdilution [9] [µg/mL]
1 | C[C@H](N)C(=O)N(C)[C@@H](C)[C@H](NC(=O)[C@H](Cc1ccccc1F)NC(=O)N[C@@H](Cc1c[nH]c2ccccc12)C(=O)O)C(=O)NC[C@H]1C[C@@H](O)[C@H](n2ccc(=O)[nH]c2=O)O1 [Compound 139, 1-[5′-[(2S,3S)-N^3-L-Alanyl-N^2-[N-[[(1S)-1-carboxy-2-indol-3-ylethyl]carbamoyl]-L-2-fluorophenylalanyl]-N^3-methyl-2,3-diaminobutyramido]-3′,5′-dideoxy-α-L-arabinofuranosyl]uracil] | 64 (≈ 79.2 µM) | 8 (≈ 9.9 µM) | >512 | 512 (≈ 634 µM) | >512 | 2 (≈ 2.48 µM) | 64 (≈ 79.2 µM) | 256 (≈ 317 µM) | 256 (≈ 317 µM) | 256 (≈ 317 µM)
2 | C[C@H](N)C(=O)N(C)[C@@H](C)[C@H](NC(=O)[C@H](Cc1ccc(F)c(F)c1)NC(=O)N[C@@H](Cc1ccc(O)cc1)C(=O)O)C(=O)NC[C@H]1C[C@@H](O)[C@H](n2ccc(=O)[nH]c2=O)O1 [Compound 144, 1-[5′-[(2S,3S)-N^3-L-Alanyl-N^2-[N-[[(1S)-1-carboxy-4-hydroxyphenethyl]carbamoyl]-L-(3,4)-difluorophenylalanyl]-N^3-methyl-2,3-diaminobutyramido)-3′,5′-dideoxy-α-L-arabinofuranosyl]uracil] | 64 (≈ 79.7 µM) | 8 (≈ 9.97 µM) | >512 | >512 | 4 (≈ 4.98 µM) | <1 | <1 | >512 | 512 (≈ 638 µM) | 256 (≈ 319 µM)
3 | CC(N)C(=O)N(C)C(C)C(NC(=O)C(Cc1ccccc1)NC(=O)NC(Cc1ccccc1)C(=O)O)C(=O)NCC1CC(O)C(n2ccc(=O)[nH]c2=O)O1 [Compound 122, 1-[5′-[[(2S,3S)-N^3-L-Alanyl-N^2-[N-[[(1S)-1-carboxy-phenethyl]carbamoyl]-L-phenylalanyl]-N^3-methyl-2,3-diaminobutyramido]-3′,5′-dideoxy-α-L-arabinofuranosyl]uracil] | 64 (≈ 85.2 µM) | 16 (≈ 21.3 µM) | >512 | >512 | >512 | 4 (≈ 5.33 µM) | 64 (≈ 85.2 µM) | >512 | 512 (≈ 682 µM) | >512
4 | CC(C(NC(=O)C(Cc1ccccc1)NC(=O)NC(Cc1c[nH]c2ccccc12)C(=O)O)C(=O)NCC1CC(O)C(n2ccc(=O)[nH]c2=O)O1)N(C)C(=O)C(N)Cc1ccc(F)cc1 [Compound 114, 1-[5′-((2S,3S)-N^2-[N-[[(1S)-1-Carboxy-2-indol-3-ylethyl]carbamoyl]-L-phenylalanyl]-N^3-L-4-fluorophenylalanyl-N^3-methyl-2,3-diaminobutyramidol-3′,5′-dideoxy-α-L-arabinofuranosyl]uracil] | 16 (≈ 18.1 µM) | 16 (≈ 18.1 µM) | 256 (≈ 290 µM) | 256 (≈ 290 µM) | 512 (≈ 579 µM) | 8 (≈ 9.05 µM) | 512 (≈ 579 µM) | >512 | >512 | 256 (≈ 290 µM)
5 | CC(C(NC(=O)C(Cc1ccccc1)NC(=O)NC(Cc1ccc(O)cc1)C(=O)O)C(=O)NCC1CC(O)C(n2ccc(=O)[nH]c2=O)O1)N(C)C(=O)C(N)Cc1ccccc1 [Compound 100, 1-[5′-[(2S,3S)-N^2-[N-[[(1S)-1-Carboxy-4-hydroxyphenethyl]carbamoyl]-L-phenylalanyl]-N^3-L-phenylalanyl-N^3-methyl-2,3-diaminobutyramido]-3′,5′-dideoxy-α-L-arabinofuranosyl]uracil] | 32 (≈ 38 µM) | 8 (≈ 9.49 µM) | >512 | >512 | 8 (≈ 9.49 µM) | <1 | 2 (≈ 2.37 µM) | >512 | 512 (≈ 607 µM) | 256 (≈ 304 µM)
6 | C[C@H](N)C(=O)N(C)[C@@H](C)[C@H](NC(=O)[C@H](Cc1ccc(F)c(F)c1)NC(=O)N[C@@H](Cc1c[nH]c2ccccc12)C(=O)O)C(=O)NC[C@H]1C[C@@H](O)[C@H](n2ccc(=O)[nH]c2=O)O1 [Compound 143, 1-[5′-[(2S,3S)-N^3-L-Alanyl-N^2-[N-[[(1S)-1-carboxy-2-indol-3-ylethyl]carbamoyl]-L-(3,4)-difluorophenylalanyl]-N^3-methyl-2,3-diaminobutyramido]-3′,5′-dideoxy-α-L-arabinofuranosyl]uracil] | 128 (≈ 155 µM) | 16 (≈ 19.4 µM) | >512 | >512 | 256 (≈ 310 µM) | <1 | 16 (≈ 19.4 µM) | 512 (≈ 620 µM) | 256 (≈ 310 µM) | 128 (≈ 155 µM)
7 | CC(C)CC(NC(=O)NC(Cc1ccc(O)cc1)C(=O)O)C(=O)NC(C(=O)NCC1CC(O)C(n2ccc(=O)[nH]c2=O)O1)C(C)N(C)C(=O)CN [Compound 120, 1-[5′-[(2S,3S)-N^2-[N-[[(1S)-1-Carboxy-4-hydroxyphenethyl]carbamoyl]-L-leucyl)-N^3-glycyl-N^3-methyl-2,3-diaminobutyramidol-3′,5′-dideoxy-α-L-arabinofuranosyl]uracil] | 16 (≈ 22.3 µM) | 4 (≈ 5.57 µM) | >512 | 512 (≈ 712 µM) | >512 | 8 (≈ 11.1 µM) | 128 (≈ 178 µM) | >512 | >512 | 512 (≈ 712 µM)
8 | CC(C(NC(=O)C(Cc1ccc(F)cc1)NC(=O)NC(Cc1c[nH]c2ccccc12)C(=O)O)C(=O)NCC1CC(O)C(n2ccc(=O)[nH]c2=O)O1)N(C)C(=O)C(N)Cc1ccc(F)cc1 [Compound 118, 1-[5′-(2S,3S)-N^2-[N-[[(1S)-1-Carboxy-2-indol-3-ylethyl]carbamoyl]-L-4-fluorophenylalanyl]-N^3-L-4-fluorophenylalanyl-N^3-methyl-2,3-diaminobutyramido]-3′,5′-dideoxy-α-L-arabinofuranosyl]uracil] | 128 (≈ 142 µM) | 128 (≈ 142 µM) | 256 (≈ 284 µM) | 256 (≈ 284 µM) | 512 (≈ 568 µM) | 8 (≈ 8.87 µM) | 256 (≈ 284 µM) | >512 | >512 | 256 (≈ 284 µM)
